Reference: patent US20260285850A1, “SUBSTITUTED OXAZOLIDINONES AND IMIDAZOLINONES AS HERBICIDES” (FMC CORPORATION, priority 2023, published 2026)

Experiments:
Assay type in all cases: in vivo
[1] = test system: wheat (Triticum aestivum); assay: Test A preemergence soil spray, visual injury rating 0-100; conditions: 10 days, 0 = no effect, 100 = complete control
Method in brief: (§1)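 Directed preemergence spray onto seeded soil or postemergence spray onto 2-10 cm plants (loam plus sand); compound carried in surfactant-containing non-phytotoxic solvent. Injury rated by eye after 10 d greenhouse growth; 0 = no effect, 100 = complete control.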

[2] = test system: palmer (palmer amaranth, palmer pigweed, Amaranthus palmeri); assay: as above; conditions: 10 days, 0 = no effect, 100 = complete control
Method in brief: as §1

[3] = test system: ryegrass, Italian (italian ryegrass, Lolium multiflorum); assay: as above; conditions: 10 days, 0 = no effect, 100 = complete control
Method in brief: as §1

[4] = test system: ragweed (common ragweed, Ambrosia artemisiifolia); assay: as above; conditions: 10 days, 0 = no effect, 100 = complete control
Method in brief: as §1

corn (Zea mays) [5] = assay: as above; conditions: 10 days, 0 = no effect, 100 = complete control
Method in brief: as §1

kochia (Bassia scoparia) [6] = assay: as above; conditions: 10 days, 0 = no effect, 100 = complete control
Method in brief: as §1

soybean (Glycine max) [7] = assay: as above; conditions: 10 days, 0 = no effect, 100 = complete control
Method in brief: as §1

[8] = test system: blackgrass (Alopecurus myosuroides); assay: as above; conditions: 10 days, 0 = no effect, 100 = complete control
Method in brief: as §1

[9] = test system: barnyardgrass (Echinochloa crus-galli); assay: as above; conditions: 10 days, 0 = no effect, 100 = complete control
Method in brief: as §1

[10] = test system: green foxtail (Setaria viridis); assay: as above; conditions: 10 days, 0 = no effect, 100 = complete control
Method in brief: as §1

[11] = test system: oat, wild (wild oat, Avena fatua); assay: as above; conditions: 10 days, 0 = no effect, 100 = complete control
Method in brief: as §1

rice (Oryza sativa) = assay: Test B flooded paddy test, visual plant response rating 0-100; conditions: 250 g ai/ha, Flood, applied to paddy water, evaluated after 13 days
Method in brief: (§2)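 Treatment occurs at the 2-leaf stage by adding compound to floodwater standing 3 cm above the soil, a level kept for the whole test. Plants stay in the greenhouse 13 days before visual comparison with controls.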

[12] = test system: barnyardgrass (Echinochloa crusgalli); assay: as above; conditions: 250 g ai/ha, Flood, applied to paddy water, evaluated after 13 days
Method in brief: as §2

[13] = test system: sedge, umbrella (small-flower umbrella sedge, Cyperus difformis); assay: as above; conditions: 250 g ai/ha, Flood, applied to paddy water, evaluated after 13 days
Method in brief: as §2

[14] = test system: ducksalad (Heteranthera limosa); assay: as above; conditions: 250 g ai/ha, Flood, applied to paddy water, evaluated after 13 days
Method in brief: as §2

[15] = test system: wheat (Triticum aestivum); assay: Test A postemergence application, visual injury rating 0-100; conditions: Postemergence, 10 days, 0 is no effect, 100 is complete control
Method in brief: as §1

[16] = test system: palmer (palmer amaranth, palmer pigweed, Amaranthus palmeri); assay: as above; conditions: Postemergence, 10 days, 0 is no effect, 100 is complete control
Method in brief: as §1

[17] = test system: galium (catchweed bedstraw, Galium aparine); assay: as above; conditions: Postemergence, 10 days, 0 is no effect, 100 is complete control
Method in brief: as §1

[18] = test system: ryegrass, Italian (italian ryegrass, Lolium multiflorum); assay: as above; conditions: Postemergence, 10 days, 0 is no effect, 100 is complete control
Method in brief: as §1

[19] = test system: ragweed (common ragweed, Ambrosia artemisiifolia); assay: as above; conditions: Postemergence, 10 days, 0 is no effect, 100 is complete control
Method in brief: as §1

corn (Zea mays) [20] = assay: as above; conditions: Postemergence, 10 days, 0 is no effect, 100 is complete control
Method in brief: as §1

kochia (Bassia scoparia) [21] = assay: as above; conditions: Postemergence, 10 days, 0 is no effect, 100 is complete control
Method in brief: as §1

soybean (Glycine max) [22] = assay: as above; conditions: Postemergence, 10 days, 0 is no effect, 100 is complete control
Method in brief: as §1

[23] = test system: blackgrass (Alopecurus myosuroides); assay: as above; conditions: Postemergence, 10 days, 0 is no effect, 100 is complete control
Method in brief: as §1

[24] = test system: barnyardgrass (Echinochloa crus-galli); assay: as above; conditions: Postemergence, 10 days, 0 is no effect, 100 is complete control
Method in brief: as §1

[25] = test system: horseweed (Erigeron canadensis); assay: as above; conditions: Postemergence, 10 days, 0 is no effect, 100 is complete control
Method in brief: as §1

[26] = test system: green foxtail (Setaria viridis); assay: as above; conditions: Postemergence, 10 days, 0 is no effect, 100 is complete control
Method in brief: as §1

[27] = test system: oat, wild (wild oat, Avena fatua); assay: as above; conditions: Postemergence, 10 days, 0 is no effect, 100 is complete control
Method in brief: as §1

CNC(=O)C1C=CC(NC(=O)C2(C)CN(c3cc(Cl)cc(Cl)c3)C(=O)O2)C1 (stereo not shown) [Compound 47]
70: Ryegrass, Italian plant response rating (0 to 100 scale) ([3]; 125 g ai/ha) | Corn plant response rating (0 to 100 scale) (corn (Zea mays) [5]; 500 g ai/ha) | Ryegrass, Italian plant response rating (0 to 100 scale) ([18]; 500 g ai/ha) | Kochia plant response rating (0 to 100 scale) (kochia (Bassia scoparia) [21]; 125 g ai/ha) | Blackgrass plant response rating (0 to 100 scale) ([23]; 500 g ai/ha)
10: Soybean plant response rating (0 to 100 scale) (soybean (Glycine max) [7]; 125 g ai/ha) | Blackgrass plant response rating (0 to 100 scale) ([8]; 125 g ai/ha) | Wheat plant response rating (0 to 100 scale) ([15]; 125 g ai/ha) | Wheat plant response rating (0 to 100 scale) ([15]; 500 g ai/ha)
60: Ragweed plant response rating (0 to 100 scale) ([4]; 500 g ai/ha)
20: Wheat plant response rating (0 to 100 scale) ([1]; 125 g ai/ha) | Blackgrass plant response rating (0 to 100 scale) ([23]; 125 g ai/ha) | Foxtail, Green plant response rating (0 to 100 scale) ([26]; 125 g ai/ha) | Oat, Wild plant response rating (0 to 100 scale) ([27]; 125 g ai/ha) | Oat, Wild plant response rating (0 to 100 scale) ([27]; 500 g ai/ha)
30: Corn plant response rating (0 to 100 scale) (corn (Zea mays) [5]; 125 g ai/ha) | Foxtail, Green plant response rating (0 to 100 scale) ([10]; 125 g ai/ha) | Plant response rating, Ducksalad (0 to 100 scale, 0 is no effect and 100 is complete control) [14] | Ryegrass, Italian plant response rating (0 to 100 scale) ([18]; 125 g ai/ha) | Soybean plant response rating (0 to 100 scale) (soybean (Glycine max) [22]; 125 g ai/ha)
0: Soybean plant response rating (0 to 100 scale) (soybean (Glycine max) [7]; 500 g ai/ha) | Plant response rating, Rice (0 to 100 scale, 0 is no effect and 100 is complete control) (rice (Oryza sativa)) | Plant response rating, Barnyardgrass (0 to 100 scale, 0 is no effect and 100 is complete control) [12] | Plant response rating, Sedge, Umbrella (0 to 100 scale, 0 is no effect and 100 is complete control) [13] | Barnyardgrass plant response rating (0 to 100 scale) ([24]; 125 g ai/ha)
100: Amaranth, Palmer plant response rating (0 to 100 scale) ([2]; 500 g ai/ha) | Kochia plant response rating (0 to 100 scale) (kochia (Bassia scoparia) [6]; 500 g ai/ha) | Barnyardgrass plant response rating (0 to 100 scale) ([9]; 500 g ai/ha) | Foxtail, Green plant response rating (0 to 100 scale) ([10]; 500 g ai/ha) | Amaranth, Palmer / Pigweed, Palmer plant response rating (0 to 100 scale) ([16]; 500 g ai/ha)
50: Ragweed plant response rating (0 to 100 scale) ([19]; 500 g ai/ha) | Soybean plant response rating (0 to 100 scale) (soybean (Glycine max) [22]; 500 g ai/ha) | Horseweed plant response rating (0 to 100 scale) ([25]; 125 g ai/ha)
40: Ragweed plant response rating (0 to 100 scale) ([4]; 125 g ai/ha) | Barnyardgrass plant response rating (0 to 100 scale) ([9]; 125 g ai/ha) | Ragweed plant response rating (0 to 100 scale) ([19]; 125 g ai/ha) | Horseweed plant response rating (0 to 100 scale) ([25]; 500 g ai/ha)
90: Ryegrass, Italian plant response rating (0 to 100 scale) ([3]; 500 g ai/ha) | Kochia plant response rating (0 to 100 scale) (kochia (Bassia scoparia) [6]; 125 g ai/ha) | Blackgrass plant response rating (0 to 100 scale) ([8]; 500 g ai/ha) | Oat, Wild plant response rating (0 to 100 scale) ([11]; 125 g ai/ha) | Oat, Wild plant response rating (0 to 100 scale) ([11]; 500 g ai/ha) | Corn plant response rating (0 to 100 scale) (corn (Zea mays) [20]; 500 g ai/ha) | Foxtail, Green plant response rating (0 to 100 scale) ([26]; 500 g ai/ha)
80: Wheat plant response rating (0 to 100 scale) ([1]; 500 g ai/ha) | Amaranth, Palmer plant response rating (0 to 100 scale) ([2]; 125 g ai/ha) | Amaranth, Palmer / Pigweed, Palmer plant response rating (0 to 100 scale) ([16]; 125 g ai/ha) | Galium plant response rating (0 to 100 scale) ([17]; 125 g ai/ha) | Galium plant response rating (0 to 100 scale) ([17]; 500 g ai/ha) | Corn plant response rating (0 to 100 scale) (corn (Zea mays) [20]; 125 g ai/ha) | Kochia plant response rating (0 to 100 scale) (kochia (Bassia scoparia) [21]; 500 g ai/ha) | Barnyardgrass plant response rating (0 to 100 scale) ([24]; 500 g ai/ha)
